Laboratory results published in patent US20040077080A1, “Compositions and methods for induction of proteins involved in xenobiotic metabolism” (priority 2000, published 2004).
“Also recorded” adds a separate entry of the source.

Key:
CYP2C19 (hCAR) = assay: CYP2C19 induction in HepG2 cell lines stably transfected with hCAR
[1] = test system: AhR (dioxin response elements); assay: in vitro; conditions: human, fold induction of luciferase activity above DMSO, DRE12-6 cells, 28 hours; TCDD 10 nanomoles per liter, omeprazole 25, 2-AAF 100, DMBA 20 micromoles per liter
Method: (§6) FIG. 25A: DRE12-6 cells were treated for 28 hours with the indicated concentrations of phytochemicals. FIG. 25B: DRE12-6 cells were treated with the indicated chemicals for 3 hours prior to co-treatment with 2,3,7,8-tetrachlorodibenzo-p-dioxin (TCDD) for 28 hours.
(§7) Chemical treatment was followed by cell lysis and luciferase measurement.
(§8) FIG. 26A: DRE12-6 cells were inoculated into a 96-well plate (2×10^4 cells per well) a day prior to treatment and treated for 28 hours with the indicated concentrations of the environmental contaminants (PAHs, PAH derivatives, PCBs, or pesticide derivatives). FIG. 26B: DRE12-6 cells were treated with the indicated chemicals for 3 hours prior to co-treatment with 2,3,7,8-tetrachlorodibenzo-p-dioxin (TCDD) for 28 hours.
(§9) The luciferase-SV40 promoter vector, with the three copies of the dioxin response elements, was transfected into HepG2 cells, which were put under neomycin selection to yield the stable cell line DRE12-6, for detection of AhR-dependent transactivation.
(§10) Luciferase assay: Luciferase assays using the LucLite system (Packard Instrument Co., Meriden, Conn.) were performed according to the manufacturer's instructions. Results were expressed as relative light units or fold induction, relative to DMSO-treated control cells. The data represent the mean±standard deviation of experiments performed in duplicate.

[2] = test system: human CYP1A1 promoter (Ah receptor); assay: 101L cell luciferase assay (HepG2 with human CYP1A1 promoter-luciferase), 96-well; conditions: 101L cells; for fold increase in luciferase activity, dose response of known CYP1A1 inducers: benzanthracene and omeprazole maximum at 100 micromolar, TCDD at 2 nanomolar
Method: Cells were initially seeded in flasks containing media without G418. After an overnight incubation the cultures were changed into media containing G418 for antibiotic selection. After three to five days, cells were removed from flasks by trypsinization and replated on either a twenty-four-well plate at a density of 3.5×10^5 cells per well, or a ninety-six-well plate at a density of 7.5×10^4 cells per well, in DMEM media that was replaced with that containing 0.1% FBS and without G418 or indicator (phenol red). The next day, media containing 0.1% FBS and G418 was added to the cultures. […] For the antagonist experiments, cells were co-treated with a flavonoid and two nanomolar TCDD. All inducers were dissolved in DMSO and this reagent was added to control cells at 0.1%. The cells were treated with varous doses and times (six to eighteen hours). After treatment, the media containing the compound was removed by aspiration and replaced with one-hundred microliters per well of DMEM for direct analysis of luciferase activity. Experiments were performed on 101L cells from frozen stocks on the initial derivation and the passage number was limited to thirty.
Luciferase assays were performed as specified by the manufacturer (LucLite system, Packard Instrument, Meriden, Conn.). Activity was determined using a Packard LumiCount luminometer and results expressed as relative light units or fold increase above control (DMSO treated cells.

CYP1A1 mRNA [3] = assay: Northern blot of CYP1A1 mRNA in primary cultures of human hepatocytes (Example II); conditions: primary human hepatocytes
Method: Six well plates containing human hepatocytes were obtained from the Liver Tissue Procurement and Distribution System (LTPADS, University of Minnesota, Minneapolis, Minn.). […] All inducers were dissolved in DMSO and added to media at a 0.1% final concentration of this reagent. After treatment, media was removed and cells harvested for RNA isolation.
(§1) Total RNA from hepatocytes or HepG2 cells was isolated using Trizol™ reagent (Gibco BRL Products, Gaithersburg, Md.) and quantified by measuring absorbance at 260 nm; purity was assessed by determining the 260/280 nm ratio. […] A cDNA probe for human 18S RNA probe (Ambion, Austin Tex.) was used to normalize the amount of RNA loaded in each lane. […] Autoradiographs of Northern blots were quantified by densitometry using a Model GS-670 Imaging Densitometer equipped with Molecular Analysis/Mac version 1.1.1. Image Analysis software (BioRad laboratories, Hercules, Calif.) or by scaning autoradiograms with a ScanMaker II (Microtek) and digitized with Un-Scan-It software (Silk Scientific, Orem Utah). Exposure times used were in the linear range of the film, Kodak XAR-5.

[4] = test system: T1, CAR (hCAR) (Homo sapiens), Q14994-2; assay: cell_activity; conditions: Caco-2 luciferase, fold above no receptor
T1 sequence: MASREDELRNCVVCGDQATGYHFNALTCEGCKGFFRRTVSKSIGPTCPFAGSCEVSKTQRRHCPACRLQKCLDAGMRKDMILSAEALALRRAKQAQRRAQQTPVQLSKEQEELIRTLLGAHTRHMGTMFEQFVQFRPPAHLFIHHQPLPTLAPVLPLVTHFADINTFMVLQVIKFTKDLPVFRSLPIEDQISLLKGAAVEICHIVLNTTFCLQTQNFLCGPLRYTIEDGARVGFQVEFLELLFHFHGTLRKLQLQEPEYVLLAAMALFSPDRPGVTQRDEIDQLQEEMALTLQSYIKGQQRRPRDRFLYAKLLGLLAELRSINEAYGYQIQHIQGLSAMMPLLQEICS

CYP3A4 mRNA [5] = conditions: human, hepatocytes
Method: FIG. 28B: Human primary hepatocytes were exposed for 48 hours to commercial health supplements including grapeseed, garlic, kava-kava, and ginseng.
Total RNA was prepared from the treated cells, subjected to electrophoresis on a 1% formaldehyde gel, and transferred onto a nylon membrane.

CYP3A4 mRNA [6] = conditions: human, hepatocytes; remark: listed apart in the source
Method: FIG. 13 depicts the effect of various CYP3A4 inducers on CYP3A4 expression in human hepatocytes. […] Total RNA (ten micrograms) was subjected to northern blot analysis and developed with a specific cDNA probe to CYP3A4 as described in the Examples.
Human hepatocytes were treated with various CYP3A4 inducers for forty eight hours, harvested, and RNA and cell homogenates isolated.

[7] = test system: PXR / mdr1(dr4) response element; assay: Caco-PXR/Pgp-Luc stable cell luciferase assay
Method: (§2) FIG. 35 depicts dose-response behavior to various PXR activators in stable cell lines overexpressing PXR and harboring DR4 response element. FIG. 35A: Results are shown for the stable cell line Hep-PXR/PgpLuc. FIG. 35B: Results are shown for the stable cell line Caco-PXR/PgpLuc.
(§3) Cells were exposed to the test compounds for 48 hours at the concentrations indicated.
(§4) Establishment of stable transformants containing both PXR and reporter plasmid and development of high throughput bioassay for PXR-dependent transactivation: The stable transformants Hep-PXR/mdr1(dr4)-Luc and Caco-PXR/mdr1(dr4)-Luc cell lines were generated from the parental cell lines HepG-PXR and Caco-PXR, respectively, according to the following procedure. The parental cell lines HepG-PXR and Caco-PXR, which overexpress PXR, were stably transfected with the luciferase reporter plasmid mdr1(dr4)-Luc. The transfected cells were cultured in DMEM (HepG-PXR cells) or in IMEM (Caco-PXR cells), both media supplemented with 10% fetal bovine serum and neomycin (700 micrograms per milliliter).
(§5) For the induction assay, stable transformants were seeded in 96-wells plates at a density of 1×10^4 cells per well and allowed to recover overnight. Plates were treated with test compounds at varying concentrations, using 3 replicates per dose. After 48 hours of exposure to the test compound, cells were washed with phosphate buffered saline, lysis buffer was applied to the wells, and luciferase substrate added. Following 10 minutes for light adaptation, luminescence was monitored according to the manufacturer's instructions (Packard kit, Biomed).

[8] = test system: PXR / mdr1(dr4) response element; assay: Hep-PXR/Pgp-Luc stable cell luciferase assay
Method: as §2, §3
FIG. 36 depicts the effect of environmental and botanical chemicals on luciferase activity in the stable cell line Hep-PXR/PgpLuc. Cells were inoculated into 96-well plates at a density of 2×10^4 cells per well. After overnight recovery, cells were treated with the test compounds at the concentrations indicated for 48 hours.
as §4, §5

CYP3A4 mRNA (PXR) = assay: Northern blot of CYP3A4 in stable cells overexpressing PXR (Hepg-PXR); conditions: stable cells that overexpress PXR
Method: FIG. 29 depicts CYP3A4 gene regulation in response to PXR ligands by the stably transfected cell line Hepg-PXR (HepG2 cells overexpressing PXR). Total RNA was prepared from Hepg-PXR cells chemically treated as indicated. The RNA blot was hybridized with ^32P-labeled cDNA for CYP3A4 (upper panel).
Northern blot analysis. Total RNA from primary human hepatocytes and from a PXR stable cell line was isolated using Trizol reagent (Invitrogen, Carlsbad, Calif.) and quantified by spectrophotometric analysis at 260 nanometers. […] The blot was subsequently washed and re-hybridized to an 18S rRNA probe to verify that equal amounts of total RNA had been applied to each lane.

CYP1A1 mRNA [9] = assay: Northern blot of CYP1A1 in primary human hepatocytes (Example V); conditions: primary hepatocytes, 24 hours; TCDD 10 nanomoles per liter, 3-MC 0.5 nanomoles per liter, omeprazole 100, chrysin 25, curcumin 50, resveratrol 25, DMBA 20, 2-AAF 100 micromoles per liter
Description: The isolated RNA was subjected to Northern blot analysis.

[10] = test system: AhR (dioxin response elements); assay: DRE12-6 luciferase assay (HepG2 with dioxin response elements); conditions: DRE12-6 cells, 28 hours
Method: as §6, §7, §8, §9, §10

[11] = test system: PXR / CYP3A4 response elements; assay: DPX2 (Hepg-hPXR/3A4-Luc) luciferase assay; conditions: DPX2 cells, kava-kava 100 micrograms per milliliter, chrysin 25 micromoles per liter
Method: Compounds tested included known PXR ligands and conventional drugs (FIG. 30A), environmental contaminants (FIG. 30B), and herbal supplements (FIG. 30C). DPX2 cells were cultured with DMEM supplemented with 10% fetal bovine serum and neomycin. Cells were inoculated into 96-well plate at a density of 1×10^4 cells per well the day before treatment.
2. […] In addition, a distal enhancer module, XREM, was amplified by PCR using the sense primer
The resulting amplified XREM fragment was ligated upstream of PXRE containing a 3A4 promoter, into a luciferase vector.
A neomycin resistance gene was generated by PCR amplification using the pcDNA3.1 plasmid (Invitrogen, Carlsbad, Calif.), which encodes a neomycin resistant gene, as a DNA template. The sense primer had the sequence […] Amplification was followed by SalI digestion of the PCR product, and the resulting fragment ligated to the SalI-digested PGL3-promoter plasmid, which contains luciferase as a reporter gene. […] The CYP3A4 cell line DPX2 (Hepg-hPXR/3A4-Luc) was established by double transfection with the PXR expression plasmid and the luciferase plasmid containing CYP3A4 PXR response element under selection with both neomycin and hygromycin.

CYP1A1 mRNA [12] = assay: Northern blot of CYP1A1 mRNA in HepG2 cells; conditions: HepG2 cells; mean of two determinations
Method: HepG2 cells were obtained from American Type Culture Collection (ATCC). Cells were grown in DMEM (Gibco/BRL). Twenty-four hours after cells were plated and grown to confluency, they were treated with one of the bioflavonoids, TCDD, or beta-naphthoflavone (Sigma). All inducers were dissolved in DMSO and this solvent was added to control cells at 0.1%.
as §1

hPXR / CYP3A4 enhancer = conditions: colony 1F; 72 hours; omeprazole 100 micromolar, PCN 50 micromolar, TCDD 1 micromolar
Description: (§11) HepG2 cells were harvested at approximately 50% confluency and seeded in six well dishes at 5×10^5 cells per well in DMEM containing 10% fetal bovine serum (FBS). […] The control cells were those that received plasmid DNA containing pGL3 promoter and pIRES(neo) or pGL3promoter and hPXR in pIRES(neo). After sixteen hours of exposure to the precipitated DNA, the culture medium was removed, cells washed twice with DMEM, and fresh media containing 10% FBS added. After an additional twenty four hours, media was replaced with that containing 400 micrograms per milliliter of G418. Media was changed every two days for three weeks until small colonies were visible. Single colonies were selected and transferred to twenty four well Costar plates (VWR, Westchester, Pa.). Each of the twenty four wells contained the same media and cells were grown to confluency with media changes every three days. Confluent wells were trypsinized and cells transferred into six well plates and upon reaching confluency therein, cells were further transferred to T75 flasks.
(§12) Luciferase assays were performed as specified by the manufacture (LucLite system, Packard Instrument, Meriden, Conn.). Activity was determined using the Packard LumniCount luminometer and results expressed as relative light units or fold increase above control (DMSO treated cells).
(§13) Cells were seeded in T75 flasks and grown to confluency. […]

CYP3A4 enhancer (PXRE) = assay: Luciferase reporter assay, HepG2 cells stably transformed with CYP3A4 enhancer (colony 13); conditions: 72 hours, omeprazole 100, clotrimazole 10, RU486 10, PCN 50, TCDD 1 micromolar
Description: as §11, §12, §13

[13] = target: CAR/RXR heterodimer (hCAR/hRXRa) (Homo sapiens, UniProt Q14994-2;P19793 Q14994-2:1-348,P19793:1-462); assay: EMSA; conditions: tags: TNT coupled transcription/translation (Promega); label: 32P
[14] = TCDD 10 nanomoles per liter, omeprazole 25, 2-AAF 100, DMBA 20 micromoles per liter

Sequence of CAR/RXR heterodimer (hCAR/hRXRa) (P19793 whole entry, one chain of several): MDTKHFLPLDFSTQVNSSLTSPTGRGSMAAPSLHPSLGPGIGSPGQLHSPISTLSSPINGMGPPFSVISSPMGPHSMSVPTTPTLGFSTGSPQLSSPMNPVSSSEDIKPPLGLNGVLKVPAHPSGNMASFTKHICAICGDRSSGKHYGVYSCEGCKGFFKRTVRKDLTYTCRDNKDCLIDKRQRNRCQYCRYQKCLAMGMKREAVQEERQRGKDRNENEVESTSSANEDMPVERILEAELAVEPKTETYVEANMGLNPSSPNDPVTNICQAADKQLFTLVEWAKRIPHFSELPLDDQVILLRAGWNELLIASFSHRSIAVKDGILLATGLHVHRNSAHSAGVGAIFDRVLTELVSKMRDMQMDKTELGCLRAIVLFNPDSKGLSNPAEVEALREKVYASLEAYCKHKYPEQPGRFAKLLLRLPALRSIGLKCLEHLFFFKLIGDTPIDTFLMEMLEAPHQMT

For Clc1ccc(-c2nc3sccn3c2C=NOCc2ccc(Cl)c(Cl)c2)cc1 [CITCO, 6-(4-chlorophenyl)imidazo[2,1-b][1,3]thiazole-5-carbaldehyde-O-(3,4-dichlorbenzyl)oxime], the “induction of HepG2 CYP2C19 (in words)” value (CYP2C19 (hCAR)) was “induce HepG2 CYP2C19”.

For c1ccc2cc3c(ccc4ccccc43)cc2c1 [benzanthracene], the fold induction [1] was 28.7 ± 1.65, the “maximum CYP1A1 mediated luciferase activity” value ([2]; 96-well plate format, 50 micromolar benzanthracene) was 33 fold and the “fold increase in luciferase activity, dose response of known CYP1A1 inducers” value [2] was “twelve to thirty-five”. For the same molecule, the “CYP1A1 mRNA level Subject A (%), normalized to TCDD induction” value (CYP1A1 mRNA [3]; 24 hours) was 50%, the “CYP1A1 mRNA level Subject B (%), normalized to TCDD induction” value (CYP1A1 mRNA [3]; 24 hours) was 50% and the “CYP1A1 mRNA level Subject C (%), normalized to benzanthracene induction” value (CYP1A1 mRNA [3]; Subject C, 24 hours) was 100%. The “CYP1A1 mRNA level Subject D (%), normalized to TCDD induction” value (CYP1A1 mRNA [3]; 24 hours) was 52% and the “CYP1A1 mRNA, % of that observed with TCDD, all subjects” value (CYP1A1 mRNA [3]; 100 micromolar benzanthracene) was 50%.

For CYP2B6 PBREM reporter, the activity [4] was 6.16 fold.

In the case of CCC1(c2ccccc2)C(=O)NC(=O)NC1=O [phenobarbital], the “CYP3A4 mRNA by Northern blot (in words)” value (CYP3A4 mRNA [5]) is reported as “increased CYP3A4 gene expression”, the “fold increase in CYP3A4 mRNA” value (CYP3A4 mRNA [6]) is reported as 3.8 fold and the “induction of HepG2 CYP2C19 (in words)” value (CYP2C19 (hCAR)) is reported as “induce HepG2 CYP2C19”.

For CC[C@H](C)C(=O)O[C@H]1CCC=C2C=C[C@H](C)[C@H](CC[C@@H]3C[C@@H](O)CC(=O)O3)[C@H]21 [mevastatin], the “dose dependence of luciferase induction (in words)” value [7] was “dose-dependent luciferase induction”, the “strength of luciferase induction (in words)” value [7] was “strongly induce” and the “dose dependence of luciferase induction (in words)” value [8] was “dose-dependent luciferase induction”. The “CYP3A4 induction by Northern blot (in words)” value (CYP3A4 mRNA (PXR)) was “efficiently activated”.

For CC(=O)Nc1ccc2c(c1)Cc1ccccc1-2 [2-AAF, 2-acetylaminofluorene], the “CYP1A1 induction by Northern blot (in words)” value (CYP1A1 mRNA [9]) was “increased CYP1A1 expression slightly”, the “fold induction of luciferase activity above DMSO” value [10, 14] was 10.21±0.36 fold and the “fold induction of luciferase activity above DMSO” value ([10]; TCDD 10 nanomoles per liter, omeprazole 25, 2-AAF 100, DMBA 20 micromoles per liter, listed as 2-acetylaminofluorene) was 4.8 fold. For the same molecule, the “strength of luciferase induction (in words)” value ([8]; Hep-PXR/PgpLuc cells, 48 hours, omeprazole 100 micromoles per liter versus rifampicin 10 micromoles per liter) was “strongly induced”, the “fold induction of luciferase activity above DMSO” value ([11]; 48 hours) was 24.7 fold and the fold induction at 48 h ([11]; human, fold induction of luciferase activity above DMSO) was 24.8.

In the case of Clc1cc2c(cc1Cl)Oc1cc(Cl)c(Cl)cc1O2 [TCDD], the “HepG2 CYP1A1 mRNA (%), normalized to TCDD induction” value (CYP1A1 mRNA [12]) is reported as 100%, the “fold increase in luciferase activity, dose response of known CYP1A1 inducers” value [2] is reported as “twelve to thirty-five; also recorded: twenty-two” and the “fold increase in luciferase activity above DMSO, single concentrations (FIG. 14)” value (hPXR / CYP3A4 enhancer) is reported as “less than two”. For the same molecule, the “CYP1A1 mRNA level Subject A (%), normalized to TCDD induction” value (CYP1A1 mRNA [3]; 24 hours) was 100%, the “CYP1A1 mRNA level Subject B (%), normalized to TCDD induction” value (CYP1A1 mRNA [3]; 24 hours) was 100% and the “CYP1A1 mRNA level Subject D (%), normalized to TCDD induction” value (CYP1A1 mRNA [3]; 24 hours) was 100%. The “CYP1A1 induction by Northern blot (in words)” value (CYP1A1 mRNA [9]) was “maximum induction”, the “AhR-mediated luciferase induction (in words)” value [10] was “dose-dependent increase” and the “fold induction of luciferase activity above DMSO” value [10, 14] was 12.99±0.64 fold. The fold induction at 28 h ([10]; human, fold induction of luciferase activity above DMSO, TCDD 10 nanomoles per liter, omeprazole 25, 2-AAF 100, DMBA 20 micromoles per liter) was 20 and the “fold increase in luciferase activity above DMSO, single concentrations (FIG. 15)” value (CYP3A4 enhancer (PXRE)) was “less than one”.

B1: CYP2C19 F4 fragment (dsDNA)
DNA 1: AACCAAACTCTTCTGACCCCCAATCT
DNA 2: AGATTGGGGGTCAGAAGAGTTTGGTT
B1: binds [13].
